Like-named read-outs stand apart in the source and are kept apart here. Positions of bridges follow the written chain, without caps; N, C: chain ends. Non-standard residues stand in square brackets, D forms with d. Residues, ends and D or L forms follow the SMILES beside them. ξ: configuration not given here. Oic = O=C(O)[C@@H]1C[C@@H]2CCCC[C@@H]2N1; Dab = NCC[C@H](N)C(=O)O; ξT = CC(O)C(N)C(=O)O
How the values were obtained:
in vitro [1] = format: cell-based
Method: (§1) The cytotoxicity of the depsipeptides to HELA cells (Acc57) and COS-7 cells (CRL-1651) was determined using the MTT reduction assay (T. Mossman, J. Immunol. Meth. 1983, 65, 55-63; M. V. Berridge, A. S. Tan, Arch. Biochem. Biophys. 1993, 303, 474-482). Briefly, the method was as follows: 7000 HELA cells/well and 4500 COS-7 cells/well were seeded and grown in 96-well microtiter plates for 24 h at 37° C. at 5% CO2. Thereafter, time zero (Tz) was determined by MTT reduction (see below). The supernatant of the remaining wells was discarded, and fresh medium and compounds in serial dilutions (12.5, 25 and 50 μM, triplicates) were pipetted into the wells. After incubation of the cells for 48 h at 37° C. at 5% CO2 the supernatant was discarded again and 100 μL MTT reagent (0.5 mg/mL in RPMI1640 and DMEM, respectively)/well was added. Following incubation at 37° C. for 2 h the media were aspirated and the cells were spiked (100 μL isopropanol/well). The absorbance of the solubilized formazan was measured at 595 nm (OD595peptide). For each concentration averages were calculated from triplicates. The percentage of growth was calculated as follows: (OD595peptide-OD595Tz-OD595Empty well)/(OD595Tz-OD595Empty well)×100%. The GI50 (Growth Inhibition) concentrations were calculated for each depsipeptide by using a trend line function for the concentrations (50, 25, 12.5 and 0 μM), the corresponding percentages and the value 50, (=TREND (C50:C0, %50:%0, 50).

[2] = Plasma stability in mouse plasma; settings: mouse plasma, 37° C., sampling up to 240 min
Method: (§2) The stability of the peptides in human and mouse plasma was determined by applying the following method: 315 μL/deep well of freshly thawed human plasma (Basler Blutspende-dienst) and mouse plasma (Harlan Sera-Lab, UK), respectively, were spiked with 35 μL/well of compound in PBS (100 μM, triplicate) and incubated at 37° C. […] Following shaking for 2 min the occurred suspensions were filtrated by vacuum and finally, 100 μL of each filtrate were transferred to a propylene microtiter plate, and analyzed by LC/MS as follows: Column: Waters, XBridge C18, mobile phases: (A) water+0.1% formic acid and (B) acetonitrile/water, 95/5 (v/v)+0.1% formic acid, gradient: 5%-100% (B) in 2 minutes, electrospray ionization, MRM detection (triple quadrupole). The peak areas were determined and triplicate values are averaged. The stability is expressed in percent of the initial value at t=0. (tx/to×100). By using the TREND function of EXCEL (Microsoft Office 2003) T1/2 were determined.

in vitro [3] = format: cell-based; remark: listed apart in the source
Method: as §1

[4] = Plasma stability in human plasma; settings: human plasma, 37° C., sampling up to 240 min
Method: as §2

human CXCR4 = target: T1, human CXCR4 (Homo sapiens, UniProt P61073); test: Ca2+-assay: CXCR4-antagonizing activity (SDF-1 induced calcium mobilization); format: cell-based; settings: mouse pre-B cell line 300-19 stably transfected with human CXCR4, read-out: IC50% [nM] ± SD, CXCR4 receptor
T1 construct: expressed in transfected cells; host or cells: mouse pre-B cell line 300-19
T1 sequence (P61073 whole entry): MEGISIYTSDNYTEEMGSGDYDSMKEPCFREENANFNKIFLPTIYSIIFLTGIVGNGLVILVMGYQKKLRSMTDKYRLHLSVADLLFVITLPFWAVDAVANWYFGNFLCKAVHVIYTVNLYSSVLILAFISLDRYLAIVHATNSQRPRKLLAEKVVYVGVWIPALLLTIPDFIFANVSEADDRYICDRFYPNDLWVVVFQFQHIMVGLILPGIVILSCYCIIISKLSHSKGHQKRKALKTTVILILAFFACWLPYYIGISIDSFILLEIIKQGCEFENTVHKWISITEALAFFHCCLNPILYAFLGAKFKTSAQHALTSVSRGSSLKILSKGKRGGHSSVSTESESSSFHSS
Text: 2.3. Ca^2+-Assay: CXCR4-Antagonizing Activity of the Peptides
Increases in intracellular calcium were monitored using a Flexstation 384 (Molecular Devices, Sunnyvale, Calif.) to assay the depsipeptides for CXCR4 antagonism in a mouse pre-B cell line 300-19 stably transfected with human CXCR4 (E. Oberlin, A. Amara, F. Bachelerie, C. Bessia, J.-L. Virelizier, F. Arenzana-Seisdedos, O. Schwartz, J.-M. Heard, I. Clark-Lewis, D. F. Legler, M. Loetscher, M. Baggiolini, B. Moser, Nature 1996, 382, 833-835; M. Loetscher, T. Geiser, T. O'Reilly, R. Zwalen, M. Baggiolini, B. Moser, J. Biol. Chem. 1994, 269, 232-237; M. D'Apuuo, A. Rolink, M. Loetscher, J. A. Hoxie, I. Clark-Lewis, F. Melchors, M. Baggiolini, B. Moser, Eur. J. Immunol. 1997, 27, 1788-1793). The cells were batch loaded with the Calcium 4 Assay kit (Molecular Devices) in assay buffer (Hanks Balanced salt solution [HBSS], 20 mM HEPES, pH 7.4, 0.1% BSA) for 1 h at room temperature and labeled cells were dispensed into black 96 well assays plates (Costar No. 3603). Calcium mobilization induced by stromal-derived factor-1 (SDF-1) was measured in the Flexstation 384 (excitation: 485 nm; emission: 525 nm) for 90 seconds. Antagonist activity of peptides was determined by spiking the cells with compounds prior to SDF-1 addition. Dose response curves (compound concentration versus % maximum response for SDF-1) were determined for each antagonist and IC50 values were calculated by fitting the data to a four parameter logistic equation using SoftmaxPro 4.8 (Molecular Devices).

[5] = test system: human red blood cells (hRBC); settings: red cells of human, 1 h
Method: The peptides were tested for their hemolytic activity against human red blood cells (hRBC). Fresh hRBC were washed three times with phosphate buffered saline (PBS) and centrifuged for 10 min at 2000×g. Compounds (100 μM) were incubated with 20% hRBC (v/v) for 1 h at 37° C. The final erythrocyte concentration was approximately 0.9×10^9 cells/mL. A value of 0% and 100% cell lyses, respectively, was determined by incubation of hRBC in the presence of PBS alone and 0.1% Triton X-100 in H2O, respectively. The samples were centrifuged, the supernatants were 20-fold diluted in PBS buffer and the optical densities (OD) were measured at 540 nm.
Percent hemolysis was calculated as follows: (OD540peptide/OD540H2O)×100%.

Structure (SMILES) | GI50 (in vitro [1]; African green monkey) | Plasmastability mouse pl. T1/2 [2] | GI50 (in vitro [3]; human) | Plasmastability human pl. T1/2 [4] | IC50 (human CXCR4) | Hemolysis at 100 μM [5] | GI50 (in vitro [1]) | GI50 (in vitro [3])
CC[C@@H](C)[C@H]1NC(=O)[C@H](CCCCN)NC(=O)[C@H](CCC(N)=O)NC(=O)[C@H](Cc2ccc(O)cc2)NC(=O)[C@@H]2CSSC[C@H](NC(=O)[C@H](C)NC(=O)[C@H](Cc3c[nH]cn3)NC(=O)[C@H](Cc3ccc(O)cc3)NC(=O)[C@@H]3CCCN3C1=O)C(=O)N[C@@H](CO)C(=O)N[C@@H](C)C(=O)N[C@H](Cc1c[nH]c3ccccc13)C(=O)N[C@@H](CCN)C(=O)N[C@@H](CCCNC(=N)N)C(=O)N[C@@H](Cc1ccc(O)cc1)C(=O)N2 [compound 11] | > 50 µM | 4 h | > 50 µM | 4 h | 0.17 ± 0.02 nM | 1.7% | – | –
C[C@@H]1NC(=O)[C@H](Cc2c[nH]cn2)NC(=O)[C@H](Cc2ccc(O)cc2)NC(=O)[C@@H]2C[C@@H]3CCCC[C@@H]3N2C(=O)[C@H]2CCCN2C(=O)[C@H](CCCCN)NC(=O)[C@H](CCC(N)=O)NC(=O)[C@H](Cc2ccc(O)cc2)NC(=O)[C@@H]2CSSC[C@H](NC1=O)C(=O)N[C@@H](CO)C(=O)N[C@@H](C)C(=O)N1CCC[C@@H]1C(=O)N[C@@H](CCN)C(=O)N[C@@H](CCCNC(=N)N)C(=O)N[C@@H](Cc1ccc(O)cc1)C(=O)N2 [compound 16] (cyclo(ACSA[dP][Dab]RYCYQK[dP][Oic]YH); disulfide 2-9) | > 50 µM | 4 h | > 50 µM | 4 h | 1.46 ± 1.6 nM | 0.5% | – | –
C[C@@H]1NC(=O)[C@H](Cc2c[nH]cn2)NC(=O)[C@H](Cc2ccc(O)cc2)NC(=O)[C@@H]2CCCN2C(=O)[C@@H](Cc2ccc(O)cc2)N(C)C(=O)[C@H](CCCCN)NC(=O)[C@H](CCC(N)=O)NC(=O)[C@H](Cc2ccc(O)cc2)NC(=O)[C@@H]2CSSC[C@H](NC1=O)C(=O)N[C@@H](CO)C(=O)N[C@@H](C)C(=O)N1CCC[C@@H]1C(=O)N[C@@H](CCN)C(=O)N[C@@H](CCCNC(=N)N)C(=O)N[C@@H](Cc1ccc(O)cc1)C(=O)N2 [compound 7] | > 50 µM | 4 h | > 50 µM | 4 h | 0.33 ± 0.1 nM | 0.6% | – | –
CC[C@@H](C)[C@@H]1C(=O)N2CCC[C@H]2C(=O)N[C@@H](Cc2ccc(O)cc2)C(=O)N[C@@H](Cc2c[nH]cn2)C(=O)N[C@@H](C)C(=O)N[C@H]2CSSC[C@H](NC(=O)[C@H](Cc3ccc(O)cc3)NC(=O)[C@H](CCCNC(=N)N)NC(=O)[C@H](CCN)NC(=O)[C@H]3CCCN3C(=O)[C@H](C)NC(=O)[C@H](CO)NC2=O)C(=O)N[C@@H](Cc2ccc(O)cc2)C(=O)N[C@@H](CCC(N)=O)C(=O)N[C@@H](CCCCN)C(=O)N1C [compound 2] | > 50 µM | 4 h | > 50 µM | 4 h | 1.22 ± 1 nM | 0.6% | – | –
C[C@@H]1NC(=O)[C@H](CO)NC(=O)[C@@H]2CSSC[C@H](NC(=O)[C@H](Cc3ccc(O)cc3)NC(=O)[C@H](CCCNC(=N)N)NC(=O)[C@H](CCN)NC(=O)[C@@H](Cc3ccc(O)cc3)NC1=O)C(=O)N[C@@H](Cc1ccc(O)cc1)C(=O)N[C@@H](CCC(N)=O)C(=O)N[C@@H](CCCCN)C(=O)N(C)[C@H](C)C(=O)N1CCC[C@H]1C(=O)N[C@@H](Cc1ccc(O)cc1)C(=O)N[C@@H](Cc1c[nH]cn1)C(=O)N[C@@H](C)C(=O)N2 [compound 12] | > 50 µM | 4 h | > 50 µM | 4 h | 0.1 ± 0.02 nM | 0.9% | – | –
C[C@@H]1NC(=O)[C@H](Cc2c[nH]cn2)NC(=O)[C@H](Cc2ccc(O)cc2)NC(=O)[C@@H]2CCCN2C(=O)CN(CCCCN)C(=O)[C@H](CCCCN)NC(=O)[C@H](CCC(N)=O)NC(=O)[C@H](Cc2ccc(O)cc2)NC(=O)[C@@H]2CSSC[C@H](NC1=O)C(=O)N[C@@H](CO)C(=O)N[C@@H](C)C(=O)N1CCC[C@@H]1C(=O)N[C@@H](CCN)C(=O)N[C@@H](CCCNC(=N)N)C(=O)N[C@@H](Cc1ccc(O)cc1)C(=O)N2 [compound 9] | > 50 µM | 4 h | > 50 µM | 4 h | 0.09 ± 0.05 nM | 2.1% | – | –
C[C@@H]1NC(=O)[C@H](Cc2c[nH]cn2)NC(=O)[C@H](Cc2ccc(O)cc2)NC(=O)[C@@H]2CCCN2C(=O)[C@@H](Cc2ccncc2)NC(=O)[C@H](CCCCN)NC(=O)[C@H](CCC(N)=O)NC(=O)[C@H](Cc2ccc(O)cc2)NC(=O)[C@@H]2CSSC[C@H](NC1=O)C(=O)N[C@@H](CO)C(=O)N[C@@H](C)C(=O)N1CCC[C@@H]1C(=O)N[C@@H](CCN)C(=O)N[C@@H](CCCNC(=N)N)C(=O)N[C@@H](Cc1ccc(O)cc1)C(=O)N2 [compound 6] | > 50 µM | 4 h | > 50 µM | 4 h | 0.17 ± 0.1 nM | 2.4% | – | –
C[C@@H]1NC(=O)[C@H](Cc2c[nH]cn2)NC(=O)[C@H](Cc2ccc(O)cc2)NC(=O)[C@@H]2CCCN2C(=O)[C@@H](CCCCN)N(C)C(=O)[C@H](CCCCN)NC(=O)[C@H](CCC(N)=O)NC(=O)[C@H](Cc2ccc(O)cc2)NC(=O)[C@@H]2CSSC[C@H](NC1=O)C(=O)N[C@@H](CO)C(=O)N[C@@H](C)C(=O)N1CCC[C@@H]1C(=O)N[C@@H](CCN)C(=O)N[C@@H](CCCNC(=N)N)C(=O)N[C@@H](Cc1ccc(O)cc1)C(=O)N2 [compound 8] | > 50 µM | 4 h | > 50 µM | 4 h | 0.31 ± 0.2 nM | 0.3% | – | –
CC(O)C1NC(=O)[C@@H]2CSSC[C@H](NC(=O)[C@H](Cc3ccc(O)cc3)NC(=O)[C@H](CCCNC(=N)N)NC(=O)[C@H](CCN)NC(=O)[C@H]3CCCN3C(=O)[C@H](C)NC1=O)C(=O)N[C@@H](Cc1ccc(O)cc1)C(=O)N[C@@H](CCC(N)=O)C(=O)N[C@@H](CCCCN)C(=O)N1CCC[C@@H]1C(=O)N1CCC[C@H]1C(=O)N[C@@H](Cc1ccc(O)cc1)C(=O)N[C@@H](Cc1c[nH]cn1)C(=O)N[C@@H](C)C(=O)N2 (some centres unmarked) [compound 17] (cyclo(YHAC[ξT]A[dP][Dab]RYCYQK[dP]P); disulfide 4-11) | – | 4 h | – | 4 h | – | 1% | > 50 µM | > 50 µM
